Values of other authors in patent US20230413809A1, “DISINFECTANT COMPOSITION FOR SURFACES AND THE PREPARATION THEREOF” (Onyx Lotus, LLC, priority 2020, published 2023).

Settings: general statement on surfactant detergency, no test described

Row | SMILES | Critical micellar concentration (CMC) [mM]
1 | O=C([O-])CC(C(=O)[O-])S(=O)(=O)O.[Na+].[Na+] (centres unmarked) [sodium sulfosuccinate] | 0.6
2 | CCCCCCCCCCCCCCCC[N+](C)(C)C.[Br-] [CTAB, cetyltrimethylammonium bromide] | 0.92
